Laboratory results taken from patent US20200246441A1, “COMPOSITIONS AND METHODS FOR AUTOIMMUNE DISEASE TREATMENT” (AMRITA VISHWA VIDYAPEETHAM, priority 2016, published 2020).
“Also recorded” adds a separate entry of the source. Non-standard residues stand in square brackets, D forms with d. No end group written: not given here. βF = beta phenylalanine (beta-amino acid)

Experiments:
[1] = tested on: MOG-specific T-cells (spleen cells from MOG T-cell receptor transgenic (2D2) mice); test: Proliferation assay, 3H-thymidine incorporation; assay type: cell-based, mouse; settings: for T-cell proliferation (proliferative response): free peptide or 500 nm silica NPs, up to 8 ug/ml
Protocol: Spleens were dissected from MOG T-cell receptor transgenic mice expressing the transgenic V3.2α/Vβ11 T-cell receptor specific for MOG35-55 peptide ([…]) in the context of 1-A^b. Single cell suspensions were prepared in complete RPMI medium containing 10% heat inactivated FBS, 2 mM L-glutamine, 100 U/ml penicillin, 100 μg/ml streptomycin, 50 μM 2-mercaptoethanol and 1 mM sodium pyruvate (Sigma). Following red blood cell lysis, splenocytes were seeded in triplicate in 96-well, flat bottom microtiter plates (Nunc) at a concentration of 2.5×10^5 cells per well. Splenocytes were cultured in medium alone or in the presence of increasing doses of MOG35-55 or nanoparticles. Cells were incubated at 37° C. for 72 hr with the addition of 1 μCi/well [3H]-thymidine (Perkin Elmer) for the last 18 hr of culture. Cells were harvested onto filter mats (Perkin Elmer) and incorporated radioactive nucleic acids counted using a Top Count NXT Scintillation Counter (Packard Biosciences).

[2] = tested on: NOD/Lt EAE mice; test: Histological analysis of CNS tissue of NOD/Lt EAE mice; assay type: in vivo, mouse; design: key to Axonal damage: 0 = no axonal pathology, 3 = severe axonal pathology; key to Demyelination score: 0 = no demyelination, 3 = severe demyelination; settings: 200 nm silica peptide nanoparticles, mean ± SEM
Protocol: (§1) For histological analysis of CNS tissue, the brain and spinal cord were dissected from mice then fixed in 10% formalin (Sigma) for 24-48 h. Tissue was then processed and embedded in paraffin wax. Serial sections (5 μm) were cut from paraffin-embedded tissues and stained with hematoxylin and eosin, luxol fast blue and Bielschowsky silver impregnation to assess inflammation, demyelination and axonal damage, respectively. Sections were scored blind for semi-quantitative histological analysis of inflammation as follows: 0, no inflammation: 1, cellular infiltrate only in the perivascular areas and meninges; 2, mild cellular infiltrate in parenchyma: 3, moderate cellular infiltrate in parenchyma; 4, severe cellular infiltrate in parenchyma. Demyelination and axonal pathology were assessed by pale staining and scored blind as follows: 0, no demyelination/axonal pathology: 1, mild demyelination/axonal pathology; 2, moderate demyelination-axonal pathology; 3, severe demyelination/axonal pathology.

[3] = tested on: NOD/Lt EAE mice; test: EAE induction and clinical scoring, recombinant mouse MOG-induced EAE in NOD/Lt mice (relapsing remitting model); assay type: in vivo; settings: for Disease incidence / Mortality / Cumulative score / Day disease onset / Maximum score / Score at termination: 200 nm silica peptide nanoparticles, NOD/Lt; for Disease incidence / Mortality: fraction of total; for Cumulative score / Day disease onset / Maximum score / Score at termination: mean ± SEM
[4] = tested on: C57Bl/6 EAE mice; test: Histological analysis of CNS tissue of C57Bl/6 EAE mice; assay type: in vivo, mouse; design: key to Axonal damage: 0 = no axonal pathology, 3 = severe axonal pathology; key to Demyelination score: 0 = no demyelination, 3 = severe demyelination; settings: for Axonal damage / Demyelination score / Inflammation score: mean ± SEM; for CNS inflammation, demyelination and axonal damage: 500 nm NPs, versus bare NPs or scrambled MOG37-52 NPs
Protocol: as §1

[5] = tested on: C57Bl/6 EAE mice; test: EAE induction and clinical scoring, MOG35-55-induced EAE in C57Bl/6 mice (chronic progressive model); assay type: in vivo, mouse; settings: for Disease incidence / Mortality: fraction of total; for Cumulative score / Day disease onset / Maximum score / Score at termination: mean ± SEM; for daily mean clinical score compared to controls: treatment prior to induction of EAE
[6] = tested on: EAE; settings: administered as free peptide; cited from earlier work
[7] = 200 nm silica peptide nanoparticles
[8] = 500 nm silica peptide nanoparticles
[9] = 500 nm silica peptide nanoparticles, i.v. day -7 and -1

With “MEVGWYRSPFSRVVHLYRNGK [MOG35-55, encephalitogenic mouse MOG peptide, free peptide, reference compound]” the “T-cell proliferation (proliferative response)” value (“T-cell proliferation” below) [1] was “robust proliferation response”.

“MOG37-52: silica nanoparticles coated with mouse MOG37-52 peptide VGWYRSPFSRVVHLYR; 500 nm in Table 1, 200 nm in Tables 2 and 3” gave an Axonal damage [2] of 2.833 ± 0.1667, a Demyelination score [2] of 2.917 ± 0.0833 and an Inflammation score [2] of 4.167 ± 0.1667. The proliferative response ([1]; 200 nm NPs) was “did not induce a proliferative response that was above background levels”, the “T-cell proliferation” value [1] was “comparable proliferative response; also recorded: comparable to the MOG37-52 peptide” and the disease severity ([3]; 200 nm NPs, NOD/Lt mice) was “significantly reduced disease severity”. For the same molecule, the Disease incidence [3] was 6/6, the Mortality [3] was 0/6 and the Cumulative score [3] was 30.50 ± 3.266^∧∧ ^##. The Day disease onset [3] was 17.33 ± 2.23, the Maximum score [3] was 2.667 ± 0.1667^∧ and the Score at termination [3] was 2.25 ± 0.2814^∧. For the same molecule, the “axonal damage compared to bear, scrambled MOG37-52 or ovalbumin nanoparticles” value ([4]; 200 nm silica nanoparticles) was “significantly reduced axonal damage”, the “inflammation compared to bear nanoparticles” value ([4]; 200 nm silica nanoparticles) was “significantly reduced inflammation” and the Axonal damage [4, 7] was 1.35 ± 0.1833 # ^∧∧∧. For the same molecule, the Demyelination score [4, 7] was 1.85 ± 0.2242, the Inflammation score [4, 7] was 2.275 ± 0.3772^∧ and the “CNS inflammation, demyelination and axonal damage” value [4] was “reduction in CNS inflammation, demyelination and axonal damage; also recorded: significantly reduced inflammation, demyelination and axonal damage”. The Axonal damage [4, 8] was 1.208 ± 0.2275 ^∧∧, the Demyelination score [4, 8] was 0.833 ± 0.8333 ^** ∧∧∧∧ and the Inflammation score [4, 8] was 1.542 ± 0.2275 ^* ∧∧. The “effect on clinical disease” value ([5]; 200 nm NPs, C57BL/6 mice) was “significant effect on clinical disease”, the Disease incidence [5, 7] was 10/10 and the Mortality [5, 7] was 0/10. For the same molecule, the Cumulative score [5, 7] was 33.05 ± 2.086 ∧∧∧∧, the Day disease onset [5, 7] was 15.70 ± 1.334 and the Maximum score [5, 7] was 2.50 ± 0.1667^∧. The Score at termination [5, 7] was 1.45 ± 0.2930^∧∧∧, the “daily mean clinical score compared to controls” value ([5]; 500 nm NPs) was “significant reduction” and the Disease incidence [5, 9] was 6/6. For the same molecule, the Mortality [5, 8] was 0/6, the Cumulative score [5, 8] was 26.00 ± 8.039 ^** and the Day disease onset [5, 8] was 17.17 ± 2.151. It also gave a Maximum score [5, 8] of 2.00 ± 0.3873 and a Score at termination [5, 8] of 1.083 ± 0.3270.

In the case of “MOG44BF: 500 nm silica nanoparticles coated with MOG44βF peptide VGWYRSPβFSRVVHLYR (VGWYRSP[βF]SRVVHLYR; also: coated on 500 nm silica nanoparticles)”, the “T-cell proliferation” value ([1]; listed as MOG440F) is reported as “not capable of stimulating T-cell proliferation”, the “T-cell proliferation” value ([1]; listed as MOG441F) is reported as “did not induce a robust proliferative response” and the “CNS inflammation, demyelination and axonal damage” value [4] is reported as “reduction in CNS inflammation, demyelination and axonal damage; also recorded: significantly reduced inflammation, demyelination and axonal damage”. For the same molecule, the Axonal damage [4, 8] was 0.5833 ± 0.2007 ∧∧∧∧, the Demyelination score [4, 8] was 0.375 ± 0.08539^### *** ∧∧∧∧ and the Inflammation score [4, 8] was 0.7917 ± 0.2694^### *** ∧∧∧∧. For the same molecule, the “therapeutic effect compared to MOG37-52 coated NPs (onset, disease severity)” value ([5]; 500 nm NPs) was “more significant therapeutic effect”, the “daily mean clinical score compared to controls” value ([5]; 500 nm NPs) was “significant reduction” and the Disease incidence [5, 9] was 2/6. For the same molecule, the Mortality [5, 8] was 0/6, the Cumulative score [5, 8] was 5.417 ± 3.967 ^**** ∧∧∧ and the Day disease onset [5, 8] was 29.17 ± 3.710^++ ^### *** ∧∧∧. The Maximum score [5, 8] was 0.4167 ± 0.3270^++ ^*** ∧∧∧ and the Score at termination [5, 8] was 0.1667 ± 0.1054 # ^∧.

Work on “ScrMOG37-52: control silica nanoparticles (500 nm or 200 nm) coated with scrambled MOG37-52 peptide RSVLVPSRWRHFYGVY [reference compound]” yielded an Axonal damage [2] of 2.583 ± 0.2007, a Demyelination score [2] of 2.583 ± 0.2007 and an Inflammation score [2] of 3.583 ± 0.2713. The “T-cell proliferation” value [1] was “not capable of stimulating T-cell proliferation”, the Disease incidence [3] was 6/6 and the Mortality [3] was 0/6. The Cumulative score [3] was 58.5 ± 2.772, the Day disease onset [3] was 13.00 ± 0.4472 and the Maximum score [3] was 3.583 ± 0.3005. It also gave a Score at termination [3] of 3.333 ± 0.3333, an Axonal damage [4, 7] of 2.188 ± 0.2302 and a Demyelination score [4, 7] of 2.063 ± 0.2745. The Inflammation score [4, 7] was 2.688 ± 0.3889, the Axonal damage [4, 8] was 2.367 ± 0.2472 and the Demyelination score [4, 8] was 2.333 ± 0.2108. The Inflammation score [4, 8] was 2.917 ± 0.2007, the Disease incidence [5, 7] was 8/8 and the Mortality [5, 7] was 0/8. The Cumulative score [5, 7] was 52.50 ± 4.621, the Day disease onset [5, 7] was 13.38 ± 0.9051 and the Maximum score [5, 7] was 3.313 ± 0.2825. For the same molecule, the Score at termination [5, 7] was 2.313 ± 0.4525, the Disease incidence [5, 9] was 6/6 and the Mortality [5, 8] was 0/6. The Cumulative score [5, 8] was 52.5 ± 2.053, the Day disease onset [5, 8] was 12.67 ± 0.4216 and the Maximum score [5, 8] was 3.00 ± 0.0000. The Score at termination [5, 8] was 1.833 ± 0.2108.

In the case of VGWYRSPβFSRVVHLYR [MOG 44βF], the “dosage at which free peptide suppressed EAE” value [6] is given as 800 µg.

B1: Ova: control silica nanoparticles (500 nm or 200 nm) coated with ovalbumin (conjugate)
chain: GSIGAASMEFCFDVFKELKVHHANENIFYCPIAIMSALAMVYLGAKDSTRTQINKVVRFDKLPGFGDSIEAQCGTSVNVHSSLRDILNQITKPNDVYSFSLASRLYAEERYPILPEYLQCVKELYRGGLEPINFQTAADQARELINSWVESQTNGIIRNVLQPSSVDSQTAMVLVNAIVFKGLWEKAFKDEDTQAMPFRVTEQESKPVQMMYQIGLFRVASMASEKMKILELPFASGTMSMLVLLPDEVSGLEQLESIINFEKLTEWTSSNVMEERKIKVYLPRMKMEEKYNLTSVLMAMGITDVFSSSANLSGISSAESLKISQAVHAAHAEINEAGREVVGSAEAGVDAASVSEEFRADHPFLFCIKHIATNAVLFFGRCVSP
Molecule B1 has an Axonal damage [2] of 2.60 ± 0.1871, a Demyelination score [2] of 2.60 ± 0.1871 and an Inflammation score [2] of 4.00 ± 0.00. For the same molecule, the “T-cell proliferation” value [1] was “not capable of stimulating T-cell proliferation”, the Disease incidence [3] was 6/6 and the Mortality [3] was 1/6. For the same molecule, the Cumulative score [3] was 46.75 ± 4.656, the Day disease onset [3] was 14.17 ± 1.327 and the Maximum score [3] was 3.583 ± 0.3005. It also gave a Score at termination [3] of 3.167 ± 0.4014, an Axonal damage [4, 7] of 2.50 ± 0.2236 and a Demyelination score [4, 7] of 2.40 ± 0.3674. It also gave an Inflammation score [4, 7] of 2.80 ± 0.4899, an Axonal damage [4, 8] of 2.333 ± 0.1667 and a Demyelination score [4, 8] of 2.333 ± 0.1667. For the same molecule, the Inflammation score [4, 8] was 2.833 ± 0.1667, the Disease incidence [5, 7] was 5/5 and the Mortality [5, 7] was 0/5. The Cumulative score [5, 7] was 62.00 ± 4.987, the Day disease onset [5, 7] was 10.60 ± 0.9274 and the Maximum score [5, 7] was 3.3 ± 0.2000. For the same molecule, the Score at termination [5, 7] was 2.60 ± 0.3317, the Disease incidence [5, 9] was 4/4 and the Mortality [5, 8] was 1/4. The Cumulative score [5, 8] was 69.38 ± 11.77, the Day disease onset [5, 8] was 10.75 ± 0.8539 and the Maximum score [5, 8] was 3.625 ± 0.4732. For the same molecule, the Score at termination [5, 8] was 2.75 ± 0.7773.
